According to patent US8815918B2, “Imidazo [2, 1-B] [1, 3, 4] thiadiazole derivatives” (Centro Nacional de Investigaciones Oncologicas (CNIO), priority 2009, dated 2014):
Where two headings read alike, the source gives them in different places.

Target: PI3K (p110α/p85α) (Homo sapiens (Human), UniProt P42336)
Assay: PI3K Activity Assay (ADP Hunter Plus)
Type: biochemical
Description: The kinase activity was measured by using the commercial ADP Hunter™ Plus assay available from DiscoveRx (#33-016), which is a homogeneous assay to measure the accumulation of ADP, a universal product of kinase activity. The enzyme, PI3K (p110α/p85α was purchased from Carna Biosciences (#07CBS-0402A). The assay was done following the manufacturer recommendations with slight modifications: Mainly the kinase buffer was replace by 50 mM HEPES, pH 7.5, 3 mM MgCl2, 100 mM NaCl, 1 mM EGTA, 0.04% CHAPS, 2 mM TCEP and 0.01 mg/ml BGG. The PI3K was assayed in a titration experiment to determine the optimal protein concentration for the inhibition assay. To calculate the IC50 of the ETP-compounds, serial 1:5 dilutions of the compounds were added to the enzyme at a fixed concentration (2.5 μg/mL. The enzyme was preincubated with the inhibitor and 30 μM PIP2 substrate (P9763, Sigma) for 5 min and then ATP was added to a final 50 μM concentration. Reaction was carried out for 1 hour at 25° C. Reagent A and B were sequentially added to the wells and plates were incubated for 30 min at 37° C. Fluorescence counts were read in a Victor instrument (Perkin Elmer) with the recommended settings (544 and 580 nm as excitation and emission wavelengths, respectively). Values were normalized against the control activity included for each enzyme (i.e., 100% PI3 kinase activity, without compound). These values were plot against the inhibitor concentration and were fit to a sigmoid dose-response curve by using the Graphad software.

[1] = read-out: Biological activity in PI3Kα, semi-quantitative

Sequence of PI3K (p110α/p85α) (P42336 whole entry): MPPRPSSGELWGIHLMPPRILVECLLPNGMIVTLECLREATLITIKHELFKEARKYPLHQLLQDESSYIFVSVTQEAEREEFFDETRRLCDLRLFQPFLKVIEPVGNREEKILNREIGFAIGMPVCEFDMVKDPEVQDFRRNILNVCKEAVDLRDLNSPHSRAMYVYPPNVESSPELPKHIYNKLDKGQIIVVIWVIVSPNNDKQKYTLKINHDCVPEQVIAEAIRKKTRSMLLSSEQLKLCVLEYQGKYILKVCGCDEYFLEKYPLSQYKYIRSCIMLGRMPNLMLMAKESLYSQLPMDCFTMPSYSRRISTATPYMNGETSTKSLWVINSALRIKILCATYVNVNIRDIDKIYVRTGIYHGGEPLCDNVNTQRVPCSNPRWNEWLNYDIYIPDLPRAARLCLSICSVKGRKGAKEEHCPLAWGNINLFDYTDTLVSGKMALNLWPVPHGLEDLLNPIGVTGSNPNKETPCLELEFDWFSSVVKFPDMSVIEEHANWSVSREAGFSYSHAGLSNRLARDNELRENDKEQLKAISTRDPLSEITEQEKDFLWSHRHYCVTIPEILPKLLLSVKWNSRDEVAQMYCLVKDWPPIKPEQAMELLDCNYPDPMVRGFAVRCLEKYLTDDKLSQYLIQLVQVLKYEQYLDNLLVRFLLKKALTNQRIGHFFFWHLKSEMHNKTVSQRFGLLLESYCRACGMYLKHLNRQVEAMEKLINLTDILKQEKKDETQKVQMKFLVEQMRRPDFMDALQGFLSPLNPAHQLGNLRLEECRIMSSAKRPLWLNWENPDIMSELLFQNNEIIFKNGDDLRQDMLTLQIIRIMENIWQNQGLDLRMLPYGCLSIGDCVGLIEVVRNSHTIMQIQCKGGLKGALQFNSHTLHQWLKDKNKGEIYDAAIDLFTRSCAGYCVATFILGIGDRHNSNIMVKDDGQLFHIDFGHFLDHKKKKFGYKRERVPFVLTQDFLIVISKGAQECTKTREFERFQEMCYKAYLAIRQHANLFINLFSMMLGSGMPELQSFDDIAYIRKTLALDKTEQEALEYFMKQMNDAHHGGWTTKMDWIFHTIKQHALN
Sequence of PI3K (p110α/p85α) (P27986 whole entry partner): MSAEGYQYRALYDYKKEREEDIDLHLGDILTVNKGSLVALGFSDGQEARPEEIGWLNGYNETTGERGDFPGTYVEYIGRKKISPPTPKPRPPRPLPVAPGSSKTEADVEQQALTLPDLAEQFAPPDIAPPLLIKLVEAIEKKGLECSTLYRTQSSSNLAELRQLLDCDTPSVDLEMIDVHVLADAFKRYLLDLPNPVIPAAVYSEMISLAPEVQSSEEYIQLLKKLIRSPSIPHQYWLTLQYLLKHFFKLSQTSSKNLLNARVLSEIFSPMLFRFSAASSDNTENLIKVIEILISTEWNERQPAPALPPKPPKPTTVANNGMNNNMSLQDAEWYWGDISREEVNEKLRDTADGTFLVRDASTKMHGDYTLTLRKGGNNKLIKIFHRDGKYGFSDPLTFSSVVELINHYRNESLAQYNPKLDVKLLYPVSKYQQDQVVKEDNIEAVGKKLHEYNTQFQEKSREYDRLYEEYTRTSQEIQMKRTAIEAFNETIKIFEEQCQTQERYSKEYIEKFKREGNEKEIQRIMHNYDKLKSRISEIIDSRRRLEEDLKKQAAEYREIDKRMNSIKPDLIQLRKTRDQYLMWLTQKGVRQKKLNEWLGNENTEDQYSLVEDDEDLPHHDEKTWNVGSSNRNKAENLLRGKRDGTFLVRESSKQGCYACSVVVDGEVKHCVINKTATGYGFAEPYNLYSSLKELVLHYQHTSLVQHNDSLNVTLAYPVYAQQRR

Compound	IC50 [1]	IC50 (read-out: IC50 [μM] PI3Kα)	inhibition at 10 µM (10 μM compound concentration, read-out: Inhibition (%) of PI3Kα activity, Inh (%) at 10 μM)
N#Cc1ccc(-c2nn3c(-c4cnc(N)c(C(F)(F)F)c4)cnc3s2)cc1 [Example 33, 4-[5-(6-Amino-5-trifluoromethyl-pyridin-3-yl)-imidazo[2,1-b][1,3,4]thiadiazol-2-yl]-benzonitrile]	0.1 to 1 µM	–	–
CC(C)(C)OC(=O)N1CCC2(CC1)C(=O)Nc1ccc(-c3nn4c(-c5cnc(N)c(C(F)(F)F)c5)cnc4s3)cc12 [Example 38, 5-[2-(1′-(tert-butoxycarbonyl)-2-oxo-1,2-dihydrospiro[indole-3,4′-piperidine]-5-yl)-imidazo[2,1-b][1,3,4]thiadiazol-5-yl]-3-trifluoromethyl-pyridin-2-ylamine]	1 to 50 µM	–	–
Nc1ncc(-c2cnc3sc(-c4ccc5c(c4)C4(CCNCC4)C(=O)N5)nn23)cc1C(F)(F)F [Example 39, 5-[2-(2-oxo-1,2-dihydrospiro[indole-3,4′-piperidine]-5-yl)-imidazo[2,1-b][1,3,4]thiadiazol-5-yl]-3-trifluoromethyl-pyridin-2-ylamine]	< 0.1 µM	–	–
Nc1ncc(-c2cnc3sc(-c4ccc5[nH]ccc5c4)nn23)cc1C(F)(F)F [Example 40, 5-[2-(1H-Indol-5-yl)-imidazo[2,1-b][1,3,4]thiadiazol-5-yl]-3-trifluoromethyl-pyridin-2-ylamine]	0.1 to 1 µM	0.676 µM	–
CN(C)c1cccc(-c2nn3c(-c4cnc(N)c(C(F)(F)F)c4)cnc3s2)c1 [Example 42, 5-[2-(3-Dimethylamino-phenyl)-imidazo[2,1-b][1,3,4]thiadiazol-5-yl]-3-trifluoromethyl-pyridin-2-ylamine]	0.1 to 1 µM	–	–
Nc1ncc(-c2cnc3sc(-c4ccc(S(=O)(=O)N5CCOCC5)cc4)nn23)cc1C(F)(F)F [Example 44, 5-{2-[4-(Morpholine-4-sulfonyl)-phenyl]-imidazo[2,1-b][1,3,4]thiadiazol-5-yl}-3-trifluoromethyl-pyridin-2-ylamine]	0.1 to 1 µM	–	–
Nc1ncc(-c2cnc3sc(-c4cccc(S(=O)(=O)N5CCOCC5)c4)nn23)cc1C(F)(F)F [Example 45, 5-{2-[3-(Morpholine-4-sulfonyl)-phenyl]-imidazo[2,1-b][1,3,4]thiadiazol-5-yl}-3-trifluoromethyl-pyridin-2-ylamine]	0.1 to 1 µM	0.437 µM	–
COc1cncc(-c2nn3c(-c4cnc(N)c(C(F)(F)F)c4)cnc3s2)c1 [Example 47, 5-[2-(5-Methoxy-pyridin-3-yl)-imidazo[2,1-b][1,3,4]thiadiazol-5-yl]-3-trifluoromethyl-pyridin-2-ylamine]	< 0.1 µM	0.021 µM	–
CS(=O)(=O)c1ccc(-c2cnc3sc(-c4cnc(N)c(C(F)(F)F)c4)nn23)cc1 [Example 49, 5-[5-(4-Methanesulfonyl-phenyl)-imidazo[2,1-b][1,3,4]thiadiazol-2-yl]-3-trifluoromethyl-pyridin-2-ylamine]	< 0.1 µM	–	–
Nc1ncc(-c2nn3c(-c4ccc(F)nc4)cnc3s2)cc1C(F)(F)F [Example 50, 5-[5-(6-Fluoro-pyridin-3-yl)-imidazo[2,1-b][1,3,4]thiadiazol-2-yl]-3-trifluoromethyl-pyridin-2-ylamine]	0.1 to 1 µM	–	97%
COC(=O)c1ccc(-c2cnc3sc(-c4cnc(N)c(C(F)(F)F)c4)nn23)cc1OC [Example 51, 4-[2-(6-Amino-5-trifluoromethyl-pyridin-3-yl)-imidazo[2,1-b][1,3,4]thiadiazol-5-yl]-2-methoxy-benzoic acid methyl ester]	< 0.1 µM	0.018 µM	–

Second part, the compound after the results:

IC50 [1]	IC50 (read-out: IC50 [μM] PI3Kα)	inhibition at 10 µM (10 μM compound concentration, read-out: Inhibition (%) of PI3Kα activity, Inh (%) at 10 μM)	Compound
< 0.1 µM	–	–	CS(=O)(=O)Nc1cccc(-c2nn3c(-c4cnc(N)c(C(F)(F)F)c4)cnc3s2)c1 [Example 31, N-{3-[5-(6-Amino-5-trifluoromethyl-pyridin-3-yl)-imidazo[2,1-b][1,3,4]thiadiazol-2-yl]-phenyl}-methanesulfonamide]
< 0.1 µM	–	–	Nc1ncc(-c2cnc3sc(-c4cccnc4)nn23)cc1C(F)(F)F [Example 32, 5-(2-Pyridin-3-yl-imidazo[2,1-b][1,3,4]thiadiazol-5-yl)-3-trifluoromethyl-pyridin-2-ylamine]
< 0.1 µM	–	–	CS(=O)(=O)NCc1cccc(-c2nn3c(-c4cnc(N)c(C(F)(F)F)c4)cnc3s2)c1 [Example 34, N-{3-[5-(6-Amino-5-trifluoromethyl-pyridin-3-yl)-imidazo[2,1-b][1,3,4]thiadiazol-2-yl]-benzyl}-methanesulfonamide]
< 0.1 µM	–	–	NC(=O)c1cccc(-c2nn3c(-c4cnc(N)c(C(F)(F)F)c4)cnc3s2)c1 [Example 35, 3-[5-(6-Amino-5-trifluoromethyl-pyridin-3-yl)-imidazo[2,1-b][1,3,4]thiadiazol-2-yl]-benzamide]
< 0.1 µM	0.095 µM	–	CCn1cc(-c2nn3c(-c4cnc(N)c(C(F)(F)F)c4)cnc3s2)cn1 [Example 36, 5-[2-(1-Ethyl-1H-pyrazol-4-yl)-imidazo[2,1-b][1,3,4]thiadiazol-5-yl]-3-trifluoromethyl-pyridin-2-ylamine]
< 0.1 µM	–	–	Cc1ccncc1-c1nn2c(-c3cnc(N)c(C(F)(F)F)c3)cnc2s1 [Example 37, 5-[2-(4-Methyl-pyridin-3-yl)-imidazo[2,1-b][1,3,4]thiadiazol-5-yl]-3-trifluoromethyl-pyridin-2-ylamine]
< 0.1 µM	0.05 µM	–	CS(=O)(=O)c1cccc(-c2nn3c(-c4cnc(N)c(C(F)(F)F)c4)cnc3s2)c1 [Example 41, 5-[2-(3-Methanesulfonyl-phenyl)-imidazo[2,1-b][1,3,4]thiadiazol-5-yl]-3-trifluoromethyl-pyridin-2-ylamine]
< 0.1 µM	0.062 µM	–	Cc1ccc(-c2nn3c(-c4cnc(N)c(C(F)(F)F)c4)cnc3s2)cn1 [Example 43, 5-[2-(6-Methyl-pyridin-3-yl)-imidazo[2,1-b][1,3,4]thiadiazol-5-yl]-3-trifluoromethyl-pyridin-2-ylamine]
< 0.1 µM	–	–	CC(=O)Nc1cccc(-c2nn3c(-c4cnc(N)c(C(F)(F)F)c4)cnc3s2)c1 [Example 46, N-{3-[5-(6-Amino-5-trifluoromethyl-pyridin-3-yl)-imidazo[2,1-b][1,3,4]thiadiazol-2-yl]-phenyl}-acetamide]
